In US7285221B2, “Composition for preventing of slime and method for preventing slime” (Kurita Water Industries, Ltd., priority 2002, dated 2007):

Assays:
[1] = tested on: slime; assay: Attachment of slime on a synthetic rubber test board in circulating test water apparatus; conditions: 120 hours after start of test; agent concentrations as in each example
Description: (§1) From a water tank 1 holding 15 liters of water, test water was passed at a rate of 10 liters/minute through a column 3 and returned to the water tank 1 using a circulating pump 2. In the column 3, a test board made of a synthetic rubber and having a surface area of 40 cm^2 was disposed to a supporting pole to measure the amount of attachment of slime.
(§2) In a water tank 4, test liquid for supplement prepared in advance was stored and transferred into the water tank 1 at a rate of 5 ml/minute using a pump for an agent 5. The test liquid for supplement was prepared by adding calcium chloride and sodium hydrogencarbonate to city water, which was dechlorinated by passing through a column of active carbon, in amounts such that the calcium hardness was 150 mg CaCO3/liter and the acid consumption (pH 4.8) was 150 mg CaCO3/liter. As the nutrient for microorganisms, 100 mg/liter of citric acid was added. To the obtained solution, a test agent was added and pH was adjusted at 8.5 by adding sodium hydroxide.
(§3) When the test was started, dirt was added into the water in the water tank 1 in an amount such that the turbidity of the water was 50. As the dirt, a concentrated liquid of reverse washing discharged from filters for industrial water in Chiba area was used. The dirt was added into the water tank 1 in an amount corresponding to a turbidity of 25 at each time when 48 hours and 96 hours had passed after the start of the test.
(§4) The number of microorganisms in the circulating water and the turbidity of the circulating water were measured 48 hours, 72 hours and 120 hours after the start of the test. The test board of synthetic rubber attached to the column 3 was taken out 120 hours after the start of the test. After slime attached to the test board was cleaved and dried to the constant weight at 105° C., the weight of the slime was measured and the amount of the attached slime was obtained.
(§5) As part A of the test agent, a mixed liquid composed of 40% by weight of an aqueous solution of sodium hypochlorite having a concentration of effective chlorine of 12% by weight, 8% by weight of a sulfamic acid, 10% by weight of sodium hydroxide and 42% by weight of water was used. This mixed liquid is a solution conventionally used as the agent for preventing formation of slime. As part B of the agent, an anionic polymer or a phosphonic acid was used.

[2] = tested on: sludge; assay: Accumulation of sludge at the bottom of the water tank of the circulating test water apparatus; conditions: 120 hours after start of test; agent concentrations as in each example
Description: as §1, §2, §3
A valve 6 at a lower portion of the water tank 1 was opened and the water in the water tank 1 was removed 120 hours after the start of the test. The valve 6 was then closed again. Into the water tank 1, 200 ml of pure water was added and dirt accumulated at the lower portion of the water tank was suspended using a brush. The valve was opened and the formed suspension was taken out. After the dirt was separated using a centrifuge and dried to the constant weight at 105° C., the weight of the dirt was measured and the amount of accumulated sludge was obtained.
as §5

[3] = tested on: microorganisms in the circulating water; assay: Number of microorganisms in the circulating water
Description: as §1, §2, §3, §4, §5

[4] = Storage stability of effective chlorine in the composition at 40° C. shielded from light; type: physicochemical; conditions: for concentration of effective chlorine remained: pH 14; for Fraction of remaining effective chlorine: pH of composition 14, 40° C.
Description: A composition composed of 40% by weight of an aqueous solution of sodium hypochlorite having a concentration of effective chlorine of 12% by weight, 8% by weight of sulfamic acid, 10% by weight of an anionic polymer or a phosphonic acid and the remaining amount of sodium hydroxide and water was prepared. pH of the composition was adjusted by changing the amount of sodium hydroxide. The prepared composition was stored in a vessel kept at the constant temperature of 40° C. and shielded from light. The concentration of the effective chlorine was measured after the composition was stored for a prescribed time.
For the measurement of the concentration of the effective chlorine, a residual chlorine meter manufactured by HACH Company and a reagent specific for this measurement were used. BELCREN (the weight-average molecular weight: 2730) manufactured by GREAT LAKES CHEMICAL Company was used as the polymaleic acid. ISOBAN (the weight-average molecular weight: 10,800) manufactured by KURARAY Co., Ltd. was used as the maleic acid-isobutylene copolymer. AQUARICK GL (the weight-average molecular weight: 10,700) manufactured by NIPPON SHOKUBAI Co., Ltd. was used as the acrylic acid-hydroxyallyloxypropanesulfonic acid copolymer. DEQUEST 2010 manufactured by MONSANTO Company was used as 1-hydroxyethylidene-1,1-diphosphonic acid. BAYHIBIT AM manufactured by BAYER Company was used as 2-phosphonobutane-1,2,4-tricarboxylic acid. BELCORE 575 manufactured by GREAT LAKES Company was used as hydroxyphosphonoacetic acid.

Compound | Attachment of slime amount [1] | Accumulation of sludge amount [2] | Number of microorganisms in circulating water ([3]; after 48 hours) | Number of microorganisms in circulating water ([3]; after 72 hours) | Number of microorganisms in circulating water ([3]; after 120 hours) | number of microorganisms in the circulating water, in words ([3]; comparison in words, no time point) | concentration of effective chlorine remained ([4]; after 3 month) | concentration of effective chlorine remained ([4]; after one month) | Fraction of remaining effective chlorine ([4]; after 7 days) | Fraction of remaining effective chlorine ([4]; after 30 days) | Fraction of remaining effective chlorine ([4]; after 90 days)
CC(O)(P(=O)(O)O)P(=O)(O)O [Comparative Example 8, 1-hydroxyethylidene-1,1-diphosphonic acid] | 17.3 mg/dm^2 | 42.8 mg | 720000 mL⁻¹ | 550000 mL⁻¹ | 490000 mL⁻¹ | not substantially different | – | – | – | – | –
CC(O)(P(=O)(O)O)P(=O)(O)O [Comparative Example 9, 1-hydroxyethylidene-1,1-diphosphonic acid] | 16.1 mg/dm^2 | 39.6 mg | 1.3e+06 mL⁻¹ | 490000 mL⁻¹ | 680000 mL⁻¹ | – | – | – | – | – | –
O=C(O)CCC(CC(=O)O)(C(=O)O)P(=O)(O)O (stereo not shown) [Comparative Example 10, 2-phosphonobutane-1,2,4-tricarboxylic acid] | 19.2 mg/dm^2 | 55.5 mg | 670000 mL⁻¹ | 840000 mL⁻¹ | 420000 mL⁻¹ | – | – | – | – | – | –
O=C(O)CCC(CC(=O)O)(C(=O)O)P(=O)(O)O (stereo not shown) [Comparative Example 11, 2-phosphonobutane-1,2,4-tricarboxylic acid] | 16.5 mg/dm^2 | 48.8 mg | 3.8e+06 mL⁻¹ | 890000 mL⁻¹ | 760000 mL⁻¹ | – | – | – | – | – | –
O=C(O)C(O)P(=O)(O)O (stereo not shown) [Comparative Example 13, hydroxy-phosphonoacetic acid] | 16.5 mg/dm^2 | 51.1 mg | 660000 mL⁻¹ | 350000 mL⁻¹ | 490000 mL⁻¹ | – | – | – | – | – | –
OCl [sodium hypochlorite] | – | – | – | – | – | – | about 20% | about 60% | 91% | 59% | 18%
